Results published in patent US20260256792A1, “TREATMENT OF CHRONIC SPONTANEOUS URTICARIA BY ADMINISTERING (R)-2-[3-[4-AMINO-3-(2-FLUORO-4-PHENOXY-PHENYL)PYRAZOLO[3,4-D]PYRIMIDIN-1-YL]PIPERIDINE-1-CARBONYL]-4-METHYL-4-[4-(OXETAN-3-YL)PIPERAZIN-1-YL]PENT-2-ENENITRILE” (priority 2023, published 2026).

Test system: angioedema in CSU patients
Test: Phase 2 CSU study: angioedema activity score over 7 days (AAS7)
Format: in vivo, human
Design: AAS7, Median / AAS7 Change from baseline, Median: scale not given here
From the text: The study comprises a 12 week, randomized, double-blind, placebo-controlled, multi-center, dose-ranging efficacy and safety phase, followed by a 40 week open label extension (OLE) phase (see FIG. 1). The study consists of three phases and an optional OLE phase. […] The weekly angioedema activity score (AAS7) was proposed as a tertiary endpoint. […] Patients were to complete the AAS using the e-diary. The e-diary was to be used once daily on the same time of each day recording of participant's answers to the angioedema activity score over 7 days (AAS7) questionnaire.

[1] = Omalizumab-Naïve Population, 400 mg TID, Week 7
[2] = Omalizumab-Naïve Population, 400 mg TID, Week 8
[3] = Omalizumab-Naïve Population, 400 mg TID, Week 9
[4] = Omalizumab-Naïve Population, 400 mg TID, Week 10
[5] = Omalizumab-Naïve Population, 400 mg TID, Week 11
[6] = Omalizumab-Naïve Population, 400 mg TID, Week 12
[7] = Patients with Prior Omalizumab Use, 400 mg BID, Week 1
[8] = Patients with Prior Omalizumab Use, 400 mg BID, Week 2
[9] = Patients with Prior Omalizumab Use, 400 mg BID, Week 3
[10] = Patients with Prior Omalizumab Use, 400 mg BID, Week 4
[11] = Patients with Prior Omalizumab Use, 400 mg BID, Week 5
[12] = Patients with Prior Omalizumab Use, 400 mg BID, Week 6
[13] = Patients with Prior Omalizumab Use, 400 mg BID, Week 7
[14] = Patients with Prior Omalizumab Use, 400 mg BID, Week 8
[15] = Patients with Prior Omalizumab Use, 400 mg QPM, Week 1
[16] = Patients with Prior Omalizumab Use, 400 mg QPM, Week 2
[17] = Patients with Prior Omalizumab Use, 400 mg QPM, Week 3
[18] = Patients with Prior Omalizumab Use, 400 mg QPM, Week 4
[19] = Patients with Prior Omalizumab Use, 400 mg QPM, Week 5
[20] = Patients with Prior Omalizumab Use, 400 mg QPM, Week 6
[21] = Patients with Prior Omalizumab Use, 400 mg QPM, Week 7
[22] = Patients with Prior Omalizumab Use, 400 mg QPM, Week 8

With `CC(C)(C=C(C#N)C(=O)N1CCC[C@@H](n2nc(-c3ccc(Oc4ccccc4)cc3F)c3c(N)ncnc32)C1)N1CCN(C2COC2)CC1` [rilzabrutinib, (R)-2-[3-[4-amino-3-(2-fluoro-4-phenoxy-phenyl)pyrazolo[3,4-d]pyrimidin-1-yl]piperidine-1-carbonyl]-4-methyl-4-[4-(oxetan-3-yl)piperazin-1-yl]pent-2-enenitrile] the “AAS7 Change from baseline, Median” value [1] was −27.00, the “AAS7 Percent change from baseline, Mean (SD)” value (“AAS7 Percent change … (SD)” below) [1] was −66.41 (55.40) % and the “AAS7 Percent change from baseline, Median” value (shortened to “AAS7 Percent change … Median”) [1] was −93.41%. For the same compound, the “AAS7 Change from baseline, Mean (SD)” value [2] was −33.38 (24.94), the “AAS7 Change from baseline, Median” value [2] was −25.00 and the “AAS7 Percent change … (SD)” value [2] was −69.90 (38.13) %. The “AAS7 Percent change … Median” value [2] was −85.88%, the “AAS7, Median” value [3] was 1.40 and the “AAS7 Change from baseline, Mean (SD)” value [3] was −38.54 (26.30). For the same compound, the “AAS7 Change from baseline, Median” value [3] was −39.00, the “AAS7 Percent change … (SD)” value [3] was −78.96 (34.18) % and the “AAS7 Percent change … Median” value [3] was −98.13%. The “AAS7, Median” value [4] was 2.00, the “AAS7 Change from baseline, Mean (SD)” value [4] was −39.26 (24.84) and the “AAS7 Change from baseline, Median” value [4] was −40.00. The “AAS7 Percent change … (SD)” value [4] was −82.44 (32.63) %, the “AAS7 Percent change … Median” value [4] was −96.61% and the “AAS7, Median” value [5] was 3.00. The “AAS7 Change from baseline, Mean (SD)” value [5] was −36.30 (27.49), the “AAS7 Change from baseline, Median” value [5] was −31.00 and the “AAS7 Percent change … (SD)” value [5] was −76.08 (33.07) %. For the same compound, the “AAS7 Percent change … Median” value [5] was −96.00%, the “AAS7, Median” value [6] was 0.00 and the “AAS7 Change from baseline, Mean (SD)” value [6] was −37.55 (25.86). The “AAS7 Change from baseline, Median” value [6] was −31.00, the “AAS7 Percent change … (SD)” value [6] was −82.72 (30.20) % and the “AAS7 Percent change … Median” value [6] was −100.00%. The “AAS7, Mean (SD)” value [7] was 0.00 (0.00), the “AAS7, Median” value [7] was 0.00 and the “AAS7 Change from baseline, Mean (SD)” value [7] was −39.50 (3.54). For the same compound, the “AAS7 Change from baseline, Median” value [7] was −39.50, the “AAS7 Percent change … (SD)” value [7] was −100.00 (0.00) % and the “AAS7 Percent change … Median” value [7] was −100.00%. The “AAS7, Mean (SD)” value [8] was 0.00 (0.00), the “AAS7, Median” value [8] was 0.00 and the “AAS7 Change from baseline, Mean (SD)” value [8] was −39.50 (3.54). For the same compound, the “AAS7 Change from baseline, Median” value [8] was −39.50, the “AAS7 Percent change … (SD)” value [8] was −100.00 (0.00) % and the “AAS7 Percent change … Median” value [8] was −100.00%. The “AAS7, Mean (SD)” value [9] was 0.00 (0.00), the “AAS7, Median” value [9] was 0.00 and the “AAS7 Change from baseline, Mean (SD)” value [9] was −39.50 (3.54). For the same compound, the “AAS7 Change from baseline, Median” value [9] was −39.50, the “AAS7 Percent change … (SD)” value [9] was −100.00 (0.00) % and the “AAS7 Percent change … Median” value [9] was −100.00%. The “AAS7, Mean (SD)” value [10] was 0.00 (0.00), the “AAS7, Median” value [10] was 0.00 and the “AAS7 Change from baseline, Mean (SD)” value [10] was −39.50 (3.54). For the same compound, the “AAS7 Change from baseline, Median” value [10] was −39.50, the “AAS7 Percent change … (SD)” value [10] was −100.00 (0.00) % and the “AAS7 Percent change … Median” value [10] was −100.00%. For the same compound, the “AAS7, Mean (SD)” value [11] was 0.00 (0.00), the “AAS7, Median” value [11] was 0.00 and the “AAS7 Change from baseline, Mean (SD)” value [11] was −39.50 (3.54). For the same compound, the “AAS7 Change from baseline, Median” value [11] was −39.50, the “AAS7 Percent change … (SD)” value [11] was −100.00 (0.00) % and the “AAS7 Percent change … Median” value [11] was −100.00%. For the same compound, the “AAS7, Mean (SD)” value [12] was 0.00 (0.00), the “AAS7, Median” value [12] was 0.00 and the “AAS7 Change from baseline, Mean (SD)” value [12] was −39.50 (3.54). The “AAS7 Change from baseline, Median” value [12] was −39.50, the “AAS7 Percent change … (SD)” value [12] was −100.00 (0.00) % and the “AAS7 Percent change … Median” value [12] was −100.00%. For the same compound, the “AAS7, Mean (SD)” value [13] was 1.00 (1.41), the “AAS7, Median” value [13] was 1.00 and the “AAS7 Change from baseline, Mean (SD)” value [13] was −38.50 (2.12). For the same compound, the “AAS7 Change from baseline, Median” value [13] was −38.50, the “AAS7 Percent change … (SD)” value [13] was −97.62 (3.37) % and the “AAS7 Percent change … Median” value [13] was −97.62%. For the same compound, the “AAS7, Mean (SD)” value [14] was 0.00 (0.00), the “AAS7, Median” value [14] was 0.00 and the “AAS7 Change from baseline, Mean (SD)” value [14] was −39.50 (3.54). For the same compound, the “AAS7 Change from baseline, Median” value [14] was −39.50, the “AAS7, Mean (SD)” value [15] was 27.00 (NC) and the “AAS7, Median” value [15] was 27.00. The “AAS7 Change from baseline, Mean (SD)” value [15] was 41.00 (NC), the “AAS7 Change from baseline, Median” value [15] was −41.00 and the “AAS7 Percent change … (SD)” value [15] was −60.29 (NC) %. For the same compound, the “AAS7 Percent change … Median” value [15] was −60.29%, the “AAS7, Mean (SD)” value [16] was 25.00 (NC) and the “AAS7, Median” value [16] was 25.00. For the same compound, the “AAS7 Change from baseline, Mean (SD)” value [16] was −43.00 (NC), the “AAS7 Change from baseline, Median” value [16] was −43.00 and the “AAS7 Percent change … (SD)” value [16] was −63.24 (NC) %. For the same compound, the “AAS7 Percent change … Median” value [16] was −63.24%, the “AAS7, Mean (SD)” value [17] was 29.00 (NC) and the “AAS7, Median” value [17] was 29.00. For the same compound, the “AAS7 Change from baseline, Mean (SD)” value [17] was −39.00 (NC), the “AAS7 Change from baseline, Median” value [17] was −39.00 and the “AAS7 Percent change … (SD)” value [17] was −57.35 (NC) %. For the same compound, the “AAS7 Percent change … Median” value [17] was −57.35%, the “AAS7, Mean (SD)” value [18] was 26.00 (NC) and the “AAS7, Median” value [18] was 26.00. For the same compound, the “AAS7 Change from baseline, Mean (SD)” value [18] was −42.00 (NC), the “AAS7 Change from baseline, Median” value [18] was −42.00 and the “AAS7 Percent change … (SD)” value [18] was −61.76 (NC) %. The “AAS7 Percent change … Median” value [18] was −61.76%, the “AAS7, Mean (SD)” value [19] was 37.00 (NC) and the “AAS7, Median” value [19] was 37.00. The “AAS7 Change from baseline, Mean (SD)” value [19] was −31.00 (NC), the “AAS7 Change from baseline, Median” value [19] was −31.00 and the “AAS7 Percent change … (SD)” value [19] was −45.59 (NC) %. For the same compound, the “AAS7 Percent change … Median” value [19] was −45.59%, the “AAS7, Mean (SD)” value [20] was 21.00 (NC) and the “AAS7, Median” value [20] was 21.00. The “AAS7 Change from baseline, Mean (SD)” value [20] was −47.00 (NC), the “AAS7 Change from baseline, Median” value [20] was −47.00 and the “AAS7 Percent change … (SD)” value [20] was −69.12 (NC) %. For the same compound, the “AAS7 Percent change … Median” value [20] was −69.12%, the “AAS7, Mean (SD)” value [21] was 12.00 (NC) and the “AAS7, Median” value [21] was 12.00. For the same compound, the “AAS7 Change from baseline, Mean (SD)” value [21] was −56.00 (NC), the “AAS7 Change from baseline, Median” value [21] was −56.00 and the “AAS7 Percent change … (SD)” value [21] was −82.35 (NC) %. For the same compound, the “AAS7 Percent change … Median” value [21] was −82.35%, the “AAS7, Mean (SD)” value [22] was 18.00 (NC) and the “AAS7, Median” value [22] was 18.00. The “AAS7 Change from baseline, Mean (SD)” value [22] was −50.00 (NC).
